Several values for one entry are separate records, joined by “and”; a condition that tells them apart may be missing. Identical values can stand only once.
Legend:
[1] = Mouse Growth Regulant Tests (12-day weight gain over controls, compound in diet); format: in vivo, CFI female mice; conditions: Mus musculus, feed or water, 288 h; for change in vivo at 200 ppm: 200 ppm in diet; for change in vivo at 400 ppm: 400 ppm in diet
Experimental: CFI female mice from Carworth Farms are received when they are six weeks old. They are housed ten to a cage in air-conditioned rooms (72° F. to 76° F.) with automatically controlled lights, 14 hours on and 10 hours off. The basal diet used in these studies is Purina Laboratory Chow (see description below), which is supplied ad libitum. Water is also allowed ad libitum.
Thirteen days after arrival, the mice are weighed in groups of ten and assigned at random to the different treatments. Twelve days later the mice are weighed again and the experiment terminated. At least three cages (30 mice) of untreated controls are included in each test. Test data are provided in Tables VI, VII, VIII, and IX below wherein data are reported as percent weight gain over controls. Unless otherwise indicated in these tables, all compounds tested were dl-racemic mixtures. The following is a description of the diet to which the growth promoting compounds were added.

[2] = Growth enhancement and feed efficiency in sheep given an implant containing test compound (six weeks); format: in vivo, sheep (Wether lambs); conditions: for Average 6-Week Feed/Gain per Pen, AV. / Average 6-Week Weight Gain (kg.)/Lamb, AV.: average of 6 replications; for Average 6-Week Feed/Gain per Pen / Average 6-Week Weight Gain (kg.)/Lamb: replications 1 to 6
From the text: To determine the effect of a 4,5,6,7-tetrahydrobenzo[b]thien-4-ylurea compound on sheep, Wether lambs are randomly allotted to pens in groups of six. The sheep are weighed and permitted food and water ad libitum. The feed is weighed daily, and uneaten feed from the previous day is collected and weighed. Test lambs receive the same unmedicated diet as control animals, but test animals receive one or more subcutaneous implants containing test compound at the base of the ear. The formulation of the implant used is given below. At the end of the six-week treatment period, the lambs are again weighed, and total feed consumed is calculated.
In these tests, six replicates of six lambs each per treatment are used and each animal receives from about 11 mg. to 105 mg. of test compound.

[3] = Growth enhancement and feed efficiency improvement in sheep fed levels of test compounds (six weeks); format: in vivo, sheep (Wether lambs); conditions: for Average Daily Gain (kg)/Lamb, av. / Six-Week Feed/Gain, av.: average of 5 replications; for Average Daily Gain (kg)/Lamb / Six-Week Feed/Gain: replications 1 to 5
From the text: To determine the effect of feeding experimental compounds on sheep performance, Wether lambs are randomly allotted to pens in groups of six. The sheep are weighed and permitted feed and water ad libitum. The feed is weighed daily, and uneaten feed from the previous day is collected and weighed. Test lambs receive the same diet as control animals but with the addition of experimental compound at a concentration of either 15 or 60 ppm. At the end of the six-week treatment period, the lambs are again weighed, and total feed is calculated.
In these tests, five replicates of six lambs each per treatment are used.

[4] = Chick tests: growth promotion and feed/gain, 13 days, compound in basal diet; format: in vivo, chicks; conditions: for Average 13-day Chick/Gain (g), AV. / Average 13-day Feed/Gain, AV.: average of 4 experiments; for Average 13-day Chick/Gain / Average 13-day Feed/Gain: experiments 1928, 1929, 1930, 1931; for Percent Improvement (13-day chick gain) / Percent Improvement (13-day feed/gain): vs control
Experimental: The following tests were conducted to evaluate the ability of 4,5,6,7-tetrahydrobenzo[b]thien-4-ylurea to promote growth in chicks.
In these tests day-old chicks are placed in heated cages and given feed and water ad libitum. In each test there are 5 male and 5 female chicks per cage and three cages per treatment are used. Treatments consist of a basal diet plus 1,3 or 9 ppm. of test compound. The chicks are weighed at the beginning and end of the experiment. Feed consumption is determined for the experimental period which is 13 days beginning when the chicks are one day old.

## NC(=O)NC1CCCc2sccc21 (centres unmarked) [4,5,6,7-tetrahydrobenzo[b]thien-4-ylurea]
[1]; Table VI, 50 ppm in diet
  change in vivo at 50 ppm: 50.1%
[1]; Table VI
  change in vivo at 200 ppm: 134%
  change in vivo at 400 ppm: 120%
[2]; 11 mg. or 99 mg. implanted, six weeks
  improvement of feed utilization over untreated controls: about 5%
[2]; 11 mg. or 99 mg. implanted, six weeks after implantation
  increase in weight gain over untreated controls: ~10%
[2]; 1 drug implant
  Average 6-Week Feed/Gain per Pen, AV.: 7.57
  Average 6-Week Weight Gain (kg.)/Lamb, AV.: 8.86 kg
  Average 6-Week Feed/Gain per Pen: 6.63 and 6.58 and 7.41 and 8.21 and 8.05 and 8.49
  Average 6-Week Weight Gain (kg.)/Lamb: 11.25 kg and 9.32 kg and 9.20 kg and 8.63 kg and 8.05 kg and 6.68 kg
[2]; 9 drug implants
  Average 6-Week Feed/Gain per Pen, AV.: 7.49
  Average 6-Week Weight Gain (kg.)/Lamb, AV.: 8.69 kg
  Average 6-Week Feed/Gain per Pen: 6.51 and 6.75 and 7.80 and 8.38 and 7.56 and 7.97
  Average 6-Week Weight Gain (kg.)/Lamb: 10.83 kg and 9.60 kg and 8.75 kg and 7.20 kg and 8.53 kg
[3]; 15 ppm in feed
  Average Daily Gain (kg)/Lamb, av.: 0.186 kg
  Six-Week Feed/Gain, av.: 6.611
  Average Daily Gain (kg)/Lamb: 0.190 kg and 0.187 kg and 0.186 kg and 0.174 kg and 0.195 kg
  Six-Week Feed/Gain: 6.777 and 6.174 and 6.158 and 7.626 and 6.319
[3]; 60 ppm in feed
  Average Daily Gain (kg)/Lamb, av.: 0.208 kg
  Six-Week Feed/Gain, av.: 6.148
  Average Daily Gain (kg)/Lamb: 0.211 kg and 0.250 kg and 0.200 kg and 0.193 kg and 0.189 kg
  Six-Week Feed/Gain: 6.250 and 5.539 and 6.040 and 6.507 and 6.403
[4]; 1 ppm
  Average 13-day Chick/Gain (g), AV.: 189 g
  Average 13-day Feed/Gain, AV.: 1.46
  Average 13-day Chick/Gain: 181 g and 193 g and 182 g and 200 g
  Average 13-day Feed/Gain: 1.48 and 1.45 and 1.49 and 1.44
  Percent Improvement (13-day chick gain): 3.3%
  Percent Improvement (13-day feed/gain): 2.7%
[4]; 3 ppm
  Average 13-day Chick/Gain (g), AV.: 195 g
  Average 13-day Feed/Gain, AV.: 1.43
  Average 13-day Chick/Gain: 199 g and 186 g and 197 g and 198 g
  Average 13-day Feed/Gain: 1.47 and 1.40 and 1.44
  Percent Improvement (13-day chick gain): 6.6%
  Percent Improvement (13-day feed/gain): 4.7%
[4]; 9 ppm
  Average 13-day Chick/Gain (g), AV.: 193 g
  Average 13-day Feed/Gain, AV.: 1.44
  Average 13-day Chick/Gain: 190 g and 198 g and 191 g
  Average 13-day Feed/Gain: 1.45 and 1.46 and 1.40
  Percent Improvement (13-day chick gain): 5.5%
  Percent Improvement (13-day feed/gain): 4.0%

## NC(=O)NC1CCC(=O)c2sccc21 (centres unmarked) [Compound B, 4,5,6,7-tetrahydro-7-oxobenzo[b]thien-4-ylurea]
[3]; 15 ppm in feed
  Average Daily Gain (kg)/Lamb, av.: 0.202 kg
  Six-Week Feed/Gain, av.: 6.216
  Average Daily Gain (kg)/Lamb: 0.187 kg and 0.208 kg and 0.218 kg and 0.186 kg and 0.210 kg
  Six-Week Feed/Gain: 6.785 and 6.067 and 5.344 and 6.795 and 6.089
[3]; 60 ppm in feed
  Average Daily Gain (kg)/Lamb, av.: 0.208 kg
  Six-Week Feed/Gain, av.: 5.151
  Average Daily Gain (kg)/Lamb: 0.216 kg and 0.207 kg and 0.237 kg and 0.189 kg and 0.190 kg
  Six-Week Feed/Gain: 6.116 and 6.263 and 5.144 and 6.723 and 6.506

## CONC(=O)NC1CCC(O)c2sccc21 (centres unmarked) [Table VIII: O,H,OCH3, 1-methoxy-3-(7-hydroxy-4,5,6,7-tetrahydrobenzo[b]thien-4-yl)urea]
[1]; Table VIII
  change in vivo at 400 ppm: 66.7%

## CC(C)NC(=O)NC1CCC(O)c2sccc21 (centres unmarked) [Table VIII: O,H,iso-C3H7]
[1]; Table VIII
  change in vivo at 200 ppm: 43.9%

## CNC(=S)NC1CCC(O)c2sccc21 (centres unmarked) [Table VIII: S,H,CH3]
[1]; Table VIII
  change in vivo at 400 ppm: 85.1%

Source: patent US4036979A, “Compositions containing 4,5,6,7-tetrahydrobenz[b]thien-4-yl-ureas or derivatives and methods of enhancing growth rate” (American Cyanamid Company, priority 1976, dated 1977)
